3 compounds from patent US10695434B2, “Preventing central nervous system induced nausea through use of vitamin B12 conjugation” (Syracuse University, priority 2018, dated 2020) can be followed below.

The nature of data set [1]: Conditioned taste avoidance (CTA), two-bottle test (nausea/malaise). To be noted: rats, IP, B12-Ex4 5 μg/kg, LiCl 0.15M. Type of data set: in vivo, Sprague Dawley rats. How it is done: Rats (n=8-10 per drug) were evaluated for expression of a CTA to a flavor paired with B12-Ex4 (5 μg/kg, IP). […] See Supplemental Methods for more details.
Data set [2] concerns the target T1, Human recombinant TCII (Homo sapiens, UniProt P20062).
T1 sequence (P20062 19-427): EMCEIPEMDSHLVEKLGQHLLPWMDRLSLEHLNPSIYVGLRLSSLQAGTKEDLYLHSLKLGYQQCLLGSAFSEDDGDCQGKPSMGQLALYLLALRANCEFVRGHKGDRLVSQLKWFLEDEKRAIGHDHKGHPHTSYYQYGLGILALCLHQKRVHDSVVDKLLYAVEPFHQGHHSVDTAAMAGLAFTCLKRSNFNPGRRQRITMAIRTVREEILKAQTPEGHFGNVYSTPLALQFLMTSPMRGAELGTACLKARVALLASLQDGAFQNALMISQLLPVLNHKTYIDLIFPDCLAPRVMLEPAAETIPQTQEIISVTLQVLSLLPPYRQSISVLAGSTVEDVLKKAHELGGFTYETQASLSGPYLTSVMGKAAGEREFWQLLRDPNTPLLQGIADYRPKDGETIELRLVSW
As to the kind of experiment: TCII binding, radio chase assay using 57Co-labelled B12. The source says: FIG. 1 is a series of graphs of (A) Synthetic scheme for Cy5-B12, Cy5 alkyne was “clicked” onto a B12-azide conjugate. (B) RP-HPLC of Cy5-B12 showing purity ≥98% and LC-MS showing 1031[M+2H]^+2, 1042[M+Na+2H]^+2, and 1050 [M+K+2H]^+2, consistent with the conjugate. (C) Excitation and emission spectra of Cy5-B12 at 645 and 682 nm, respectively. […] Note that B12-Ex4 agonism at the GLP-1 receptor was previously reported (68 pM).
One addition to the characterization was the measure of TCII binding of B12-Ex4 (FIG. 1D), which was conducted at the Department of Clinical Medicine-Clinical Biochemistry, University of Aarhus, Denmark as described. […] Injections were separated by at least 48 h. For most in vivo experiments, injections were administered using a within-subjects, Latin square design. The exception was the conditioned taste avoidance (CTA) study, which used a between-subjects design.
In addition, the food intake- and body weight-suppressive effects of GLP-1R agonists have highlighted the utility of these pharmacotherapies for the treatment of obesity.

Data set [3] is described as follows: Intraperitoneal glucose tolerance test (IPGTT). Type of data set: in vivo, C57BL/6J mice. To be noted: mice. The procedure: The experimental procedure for IPGTT in mice was similar to that used for OGTT in rats. Briefly, mice (n=13; 8 females, 5 males) were food and water deprived for 4 h before and during the IPGTT. Testing was completed mid-light phase. Blood was collected from the tail tip and analyzed for BG. […] Thirty minutes later (t=0 min), BG was measured and each mouse received an IP injection of glucose (2 g/kg). Subsequent BG readings were taken at 20, 40, 60, and 120 min after glucose injection. After the final BG reading, food and water were returned. Area under the curve (AUC) was calculated from 0-120 min (e.g., beginning at the time of glucose administration) using the trapezoidal method.

Data set [4] in a line: Oral glucose tolerance test (OGTT). The following applies: rats. Type of data set: in vivo, Sprague Dawley rats. How it is done: Rats (n=12) were deprived of food overnight before testing. On the morning of testing, just after the onset of the […], water was also removed from the cage. A small drop of blood was collected from the tail tip and analyzed for blood glucose (BG) level using a standard glucometer (AccuCheck). Immediately after this baseline BG reading (t=−30 min), each rat received SC injection of B12-Ex4 (5 or 20 μg/kg) or vehicle (1 ml/kg sterile saline); doses of drug were selected based on the results of the feeding study. Thirty minutes later (t=0 min), BG was measured and each rat received an oral gavage of glucose (2 g/kg). Subsequent BG readings were taken at 20, 40, 60, and 120 min after glucose gavage. After the final BG reading, food and water were returned.
(§1) Pre-weighed food was returned to the rats after the OGTT, and chow intake was measured for ˜21.5 h (e.g., until 24 h after the SC injections). Spillage was accounted for in food intake measurements. Body weight was recorded at 0 and 24 h. For the OGTT, n=10 rats were tested; food and body weight data were collected from n=9 due to a technical error in food intake measurement.

Data set [5] is described as follows: Energy balance: chow intake and body weight after SC injection. Format: in vivo, Sprague Dawley rats. The following applies: rats. The procedure: Shortly before the onset of the dark phase, rats (n=12) were given subcutaneous (SC) injection of B12-Ex4 (1, 5, or 20 μg/kg) or vehicle (1 ml/kg sterile saline). Chow intake was measured at 1, 3, 6, and 24 h post-injection. Food spillage was accounted for in all intake measurements. Body weight was also measured at 0 and 24 h.
as §1

Data set [6] can be described thus: Oral glucose tolerance test, food intake and nausea (kaolin consumption) in diabetic lean rats. Type of data set: in vivo. The following applies: Goto-Kakazaki rats; Ex-4 20 ug/Kg, B12-Ex4 equimolar, liraglutide 100 ug/Kg, 60 min pre-glucose. How it is done: FIG. 8 is a series of graphs showing a standard oral glucose tolerance test performed in Goto-Kakazaki rats, a form of naturally diabetic lean rat, along with food intake and nausea measurements.
Referring to FIG. 8, Testing of Ex-4 at 20 ug/Kg, B12-Ex4 at equimolar to Ex-4, and liraglutide at 100 ug/Kg were screened for glucoregulation, food intake reduction and nausea (kaolin consumption). All drugs were administered at 60 minutes pre-glucose bolus, food intake and nausea were tracked over 6 hours.

As for `[Cl-].[Li+]` [LiCl, lithium chloride], the “acceptance of the drug-paired flavor (CTA)” value in data set [1] was “produce avoidance of the drug-paired flavor”.
Regarding Cyanocobalamin [cyano-B12], in data set [2], the equilibrium dissociation constant (Kd) is 0.98 nM.
For the compound exendin-4 [Ex4], in data set [3] (30 min after IP drug), the “BG prior to IP glucose injection (t=0)” value is on record as “reduced BG levels”. For the same compound, the “blood glucose levels in the IPGTT” value in data set [3] (IP Ex4 5 μg/kg or equimolar B12-Ex4, IP glucose 2 g/kg) is given as “strongly attenuated the increase in blood glucose levels”. In addition, the “BG at 20 min, Ex4 compared to B12-Ex4” value in data set [3] (p<0.05) is given as “more potent effect”. For the same compound, the “blood glucose area under the curve 0-120 min” value in data set [3] (post-glucose load, vs saline) is “hypoglycemic effects”. In addition, in data set [4] (SC 5 or 20 μg/kg, 30 min after injection), the “blood glucose by drug on its own (t=0, before glucose)” value is “increased BG on its own”. Besides, the “blood glucose levels in the OGTT (overall)” value in data set [4] (SC 5 or 20 μg/kg, oral glucose 2 g/kg) is on record as “pronounced hyperglycemic response”. Further, the “BG late after glucose gavage” value in data set [4] (B12-Ex4: both doses at 60 min, higher dose at 120 min, Ex4: 40, 60, 120 min) was “remained significantly elevated”. In addition, in data set [5] (SC 5 or 20 μg/kg, vs vehicle), the “food intake in the 21.5 h after OGTT” value is “ate significantly less”. In data set [5] (SC, vehicle versus 20 μg/kg p<0.05), the “body weight gain, 24 h” value is recorded as “gained less body weight”. Besides, the “hyperglycemia in OGTT” value in data set [6] was “does do”.

In general, Kd refers to the free concentration of one partner at which half of the binding sites on the other are occupied at equilibrium, for simple one-to-one binding.
